Read-outs that look alike come from different tables or passages of the source.
Key:
[1] = molecular target: T1, kappa-delta heterodimer (UniProt P32300+P34975); experiment: biochemical; type: binding, rat kappa, mouse delta
T1 construct: myc; FLAG; expressed in transfected cells; host or cells: HEK293

[2] = molecular target: T2, kappa opioid receptor (Rattus norvegicus, UniProt P34975); experiment: biochemical; type: binding
T2 construct: expressed in transfected cells; host or cells: HEK293
T2 sequence (P34975 whole entry): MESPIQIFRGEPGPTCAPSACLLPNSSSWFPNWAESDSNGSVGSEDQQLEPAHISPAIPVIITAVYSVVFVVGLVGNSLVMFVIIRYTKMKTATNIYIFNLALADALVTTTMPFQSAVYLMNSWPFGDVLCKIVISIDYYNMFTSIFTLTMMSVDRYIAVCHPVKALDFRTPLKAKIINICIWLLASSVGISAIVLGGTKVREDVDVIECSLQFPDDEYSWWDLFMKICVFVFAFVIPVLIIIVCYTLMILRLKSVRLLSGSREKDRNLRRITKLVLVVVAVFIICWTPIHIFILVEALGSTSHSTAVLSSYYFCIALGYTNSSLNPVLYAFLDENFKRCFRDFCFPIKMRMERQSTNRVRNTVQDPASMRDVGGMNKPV

T1 sequence (P34975 whole entry): as above
T1 sequence (P32300 whole entry): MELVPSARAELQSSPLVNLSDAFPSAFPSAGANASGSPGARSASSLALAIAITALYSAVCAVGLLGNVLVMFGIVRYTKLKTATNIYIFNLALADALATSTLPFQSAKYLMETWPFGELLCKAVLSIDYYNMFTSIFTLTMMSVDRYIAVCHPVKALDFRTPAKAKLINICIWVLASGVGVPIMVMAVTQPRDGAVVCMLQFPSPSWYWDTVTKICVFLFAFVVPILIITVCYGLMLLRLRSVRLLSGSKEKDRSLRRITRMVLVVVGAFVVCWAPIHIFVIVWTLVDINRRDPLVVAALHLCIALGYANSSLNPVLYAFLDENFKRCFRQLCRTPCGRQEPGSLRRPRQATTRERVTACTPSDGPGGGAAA

SMILES | Ki ([1]; Kappa-Delta (Ki)) | Ki [2] | Ki ([1]; read-out: Kappa-Delta (Ki)) | Ki ([2]; read-out: Kappa (Ki)) | affinity of kappa receptors (in words) [2]
CCC12CCN(CC3(O)CC3)C(Cc3ccc(O)cc31)C2(C)C (stereo not shown) [Bremazocine] | 1.2 ± 0.1 nM | 0.4 ± 0.11 nM |  |  | 
O=C1C(=Cc2ccccc2)C[C@@]2(O)[C@H]3Cc4ccc(O)c5c4[C@@]2(CCN3CC2CC2)[C@H]1O5 [BNTX, 7-Benzylidenenaltrexone] |  |  | 98 ± 19 nM | 172 ± 19 nM | 
CC[C@]12CCN(CC3CC3)[C@H](C(=O)c3ccc(O)cc31)[C@@H]2C [EKC, ethylketocyclazocine] | 2.6 ± 0.2 nM | 5.7 ± 0.79 nM |  |  | 
Oc1ccc2c3c1O[C@H]1c4[nH]c5c(c4C[C@@]4(O)[C@@H](C2)N(CC2CC2)CC[C@]314)C[C@@]1(O)[C@H]2Cc3ccc(O)c4c3[C@@]1(CCN2CC1CC1)[C@H]5O4 [nor-BNI, nor-binaltorphimine] |  | 4.9 ± 0.3 nM |  |  | high affinities
Oc1ccc2c3c1O[C@H]1c4[nH]c5ccccc5c4C[C@@]4(O)[C@@H](C2)N(CC2CC2)CC[C@]314 [Naltrinole] | 44 ± 1.1 nM | 44.3 ± 1.1 nM |  |  | 
